Laboratory results reported in publication PMC7774954, “Interactomic affinity profiling by holdup assay: Acetylation and distal residues impact the PDZome-binding specificity of PTEN phosphatase” (PLoS ONE, 2020).
*1 amine or outer side, *2 acyl side, *3 side chain or, on linkers, in order; H or OH if unused. Where a SMILES comes first, the peptide text is derived from it. The star is where a group is joined. X1 = O=C(CCCC[C@@H]1SC[C@@H]2NC(=O)N[C@@H]21)NCCCOCCOCCOCCCN*; Suc = O=C(CCC(=O)[*:2])[*:1]

What was measured:
[1] = molecular target: INADL-7 (Homo sapiens, UniProt Q8NI35); assay: Holdup assay, INADL-7; assay type: binding
[2] = molecular target: T1, MAGI1 PDZ 2 (Homo sapiens, UniProt Q96QZ7); assay: Holdup assay, MAGI1-2; assay type: binding
T1 construct: made in house; host or cells: E. coli
Protocol: (§1) The holdup assay was performed on a Tecan freedom Evo200 robot with 384-well plates in singlicate for the three 11-mer PTEN variants and the 13-mer PTEN peptide as described in [31, 32]. Briefly, prior to interaction assay, 2.5 μL of streptavidin resin was saturated in each well with 20 μL of biotinylated PBM peptides (42 μM) and then washed twice with an excess of free biotin, while the reference resin was incubated only with biotin. Right before the holdup experiment, the PDZ library was spiked with an internal standard of lysozyme. Then, the biotin- or PBM-saturated resin was incubated, each in a distinct well of a 384-well plate, with complete cell lysates diluted so that the concentration of the tag-PDZ present in the crude extract is adjusted at 4 μM. After a sufficient time to reach complex equilibrium (15 min.), a fast and mild filtration step is performed and the tag-PDZ concentrations were measured by capillary electrophoresis instrument (LabChip GXII, PerkinElmer, Massachusets, USA). Standard markers were used to convert migration time into molecular weight on the LabChip software and inappropriate molecular weight markers were corrected or excluded.
(§2) For filtered data, the BI was extracted with the following equation (Eq 1) that estimates the depleted fraction after superimposition of the sample and reference electropherograms: BI=Iref−Ilig/Iref (1) where Iref and Ilig are the intensities of the tag-PDZ peaks measured, for each PDZ domain/PBM peptide interaction pair, in the biotin reference and the PBM electropherograms, respectively.
BIs were transformed into dissociation constants (KD) using the following formula: KD=([PDZtot]−BI·[PDZtot])·([PBMtot]−BI·[PDZtot])/BI·[PDZtot] […] We systematically determined the KD constants for a subset of PDZ/PBM pairs by competitive FP. […] For each PBM, the average peptide concentration was calculated after outlier rejection based on the absolute distances from the median as compared to three times the standard deviation (3σ rule), with never more than 2 values rejected.

[3] = tested on: MAGI1-1; assay: Holdup assay, MAGI1-1; assay type: binding, human
[4] = tested on: INADL-1; assay: Holdup assay, INADL-1; assay type: binding, human
[5] = molecular target: DLG1-1 (Homo sapiens, UniProt Q12959); assay: Holdup assay, DLG1-1; assay type: binding
[6] = tested on: CASK-1; assay: Holdup assay, CASK-1; assay type: binding, human
[7] = tested on: CARD11-1; assay: Holdup assay, CARD11-1; assay type: binding, human
[8] = tested on: HTRA4-1; assay: Holdup assay, HTRA4-1; assay type: binding, human
[9] = molecular target: MAGI2-6 (Homo sapiens, UniProt Q86UL8); assay: Holdup assay, MAGI2-6; assay type: binding
[10] = tested on: INADL-5; assay: Holdup assay, INADL-5; assay type: binding, human
[11] = tested on: FRMPD2-3; assay: Holdup assay, FRMPD2-3; assay type: binding, human
[12] = molecular target: T2, SDCBP PDZ 1 (Homo sapiens, UniProt O00560); assay: Holdup assay, SDCBP-1; assay type: binding; conditions: PDZ domain SDCBP-1
T2 construct: made in house; host or cells: E. coli
T2 sequence (O00560 114-193 limits assumed): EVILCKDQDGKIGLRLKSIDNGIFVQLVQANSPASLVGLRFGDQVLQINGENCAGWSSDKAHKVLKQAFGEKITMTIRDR
Protocol: as §1, §2
(§3) BIs were transformed into dissociation constants (KD) using the following formula: KD=([PDZtot]−BI·[PDZtot])·([PBMtot]−BI·[PDZtot])/BI·[PDZtot] (2) where [PDZtot] and [PBMtot] correspond to the total concentrations of the PDZ domain (usually around 4 μM) and the PBM peptide used during the assay. Since the PBMtot concentration in the resin during the holdup assay parameter may differ from one peptide to another and remains unknown, it is impossible to directly convert BI values into KD constants. We systematically determined the KD constants for a subset of PDZ/PBM pairs by competitive FP. […] For each PBM, the average peptide concentration was calculated after outlier rejection based on the absolute distances from the median as compared to three times the standard deviation (3σ rule), with never more than 2 values rejected.

[13] = molecular target: T3, MAST1 PDZ 1 (Homo sapiens, UniProt Q9Y2H9); assay: Holdup assay, MAST1-1; assay type: binding; conditions: for BI: MAST1-1
T3 construct: made in house; host or cells: E. coli
T3 sequence (Q9Y2H9 967-1055 limits assumed): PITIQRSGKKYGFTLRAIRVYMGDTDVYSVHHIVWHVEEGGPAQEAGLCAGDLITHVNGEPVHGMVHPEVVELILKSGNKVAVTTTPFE
Protocol: as §1, §2, §3

[14] = molecular target: T4, PTPN13 PDZ 2 (Homo sapiens, UniProt Q12923); assay: Holdup assay, PTPN13-2; assay type: binding; conditions: for BI: PDZ domain PTPN13-2
T4 construct: made in house; host or cells: E. coli
T4 sequence (Q12923 1368-1452 limits assumed): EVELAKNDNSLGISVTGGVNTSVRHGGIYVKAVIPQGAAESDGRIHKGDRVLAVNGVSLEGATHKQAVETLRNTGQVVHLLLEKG
Protocol: as §1, §2, §3

[15] = tested on: FRMPD3-1; assay: Holdup assay, FRMPD3-1; assay type: binding, human
[16] = molecular target: T5, MAST2 PDZ 1 (Homo sapiens, UniProt Q6P0Q8); assay: Holdup assay, MAST2-1; assay type: binding
T5 construct: made in house; host or cells: E. coli
T5 sequence (Q6P0Q8 1104-1192 limits assumed): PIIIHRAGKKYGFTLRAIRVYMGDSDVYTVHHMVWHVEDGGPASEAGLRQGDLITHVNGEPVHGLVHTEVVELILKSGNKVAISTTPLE
Protocol: as §1, §2, §3

[17] = molecular target: T6, NHERF2 PDZ 1 (Homo sapiens, UniProt Q15599); assay: Holdup assay, NHERF2-1; assay type: binding; conditions: PDZ domain NHERF2-1
T6 construct: made in house; host or cells: E. coli
Protocol: as §1, §2, §3

[18] = molecular target: T7, DFNB31-1 (Homo sapiens, UniProt Q9P202); assay: Holdup assay, DFNB31-1; assay type: binding
T7 sequence (Q9P202 140-223): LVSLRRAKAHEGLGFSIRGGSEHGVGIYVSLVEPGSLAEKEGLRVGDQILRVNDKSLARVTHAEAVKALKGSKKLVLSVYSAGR

[19] = tested on: MAGI2-1; assay: Holdup assay, MAGI2-1; assay type: binding, human
[20] = molecular target: T8, DLG4 PDZ 1 (Homo sapiens, UniProt P78352); assay: Holdup assay, DLG4-1; assay type: binding; conditions: for BI: DLG4-1
T8 construct: made in house; host or cells: E. coli
Protocol: as §1, §2, §3

[21] = tested on: GRID2IP-1; assay: Holdup assay, GRID2IP-1; assay type: binding, human
[22] = molecular target: GORASP2-1 (Homo sapiens, UniProt Q9H8Y8); assay: Holdup assay, GORASP2-1; assay type: binding
[23] = tested on: GRIP2-7; assay: Holdup assay, GRIP2-7; assay type: binding, human

Sequence of MAGI2-6 (Q86UL8 1147-1229): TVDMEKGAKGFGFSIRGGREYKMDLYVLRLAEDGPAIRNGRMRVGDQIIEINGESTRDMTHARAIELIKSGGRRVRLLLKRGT
Sequence of INADL-7 (Q8NI35 whole entry): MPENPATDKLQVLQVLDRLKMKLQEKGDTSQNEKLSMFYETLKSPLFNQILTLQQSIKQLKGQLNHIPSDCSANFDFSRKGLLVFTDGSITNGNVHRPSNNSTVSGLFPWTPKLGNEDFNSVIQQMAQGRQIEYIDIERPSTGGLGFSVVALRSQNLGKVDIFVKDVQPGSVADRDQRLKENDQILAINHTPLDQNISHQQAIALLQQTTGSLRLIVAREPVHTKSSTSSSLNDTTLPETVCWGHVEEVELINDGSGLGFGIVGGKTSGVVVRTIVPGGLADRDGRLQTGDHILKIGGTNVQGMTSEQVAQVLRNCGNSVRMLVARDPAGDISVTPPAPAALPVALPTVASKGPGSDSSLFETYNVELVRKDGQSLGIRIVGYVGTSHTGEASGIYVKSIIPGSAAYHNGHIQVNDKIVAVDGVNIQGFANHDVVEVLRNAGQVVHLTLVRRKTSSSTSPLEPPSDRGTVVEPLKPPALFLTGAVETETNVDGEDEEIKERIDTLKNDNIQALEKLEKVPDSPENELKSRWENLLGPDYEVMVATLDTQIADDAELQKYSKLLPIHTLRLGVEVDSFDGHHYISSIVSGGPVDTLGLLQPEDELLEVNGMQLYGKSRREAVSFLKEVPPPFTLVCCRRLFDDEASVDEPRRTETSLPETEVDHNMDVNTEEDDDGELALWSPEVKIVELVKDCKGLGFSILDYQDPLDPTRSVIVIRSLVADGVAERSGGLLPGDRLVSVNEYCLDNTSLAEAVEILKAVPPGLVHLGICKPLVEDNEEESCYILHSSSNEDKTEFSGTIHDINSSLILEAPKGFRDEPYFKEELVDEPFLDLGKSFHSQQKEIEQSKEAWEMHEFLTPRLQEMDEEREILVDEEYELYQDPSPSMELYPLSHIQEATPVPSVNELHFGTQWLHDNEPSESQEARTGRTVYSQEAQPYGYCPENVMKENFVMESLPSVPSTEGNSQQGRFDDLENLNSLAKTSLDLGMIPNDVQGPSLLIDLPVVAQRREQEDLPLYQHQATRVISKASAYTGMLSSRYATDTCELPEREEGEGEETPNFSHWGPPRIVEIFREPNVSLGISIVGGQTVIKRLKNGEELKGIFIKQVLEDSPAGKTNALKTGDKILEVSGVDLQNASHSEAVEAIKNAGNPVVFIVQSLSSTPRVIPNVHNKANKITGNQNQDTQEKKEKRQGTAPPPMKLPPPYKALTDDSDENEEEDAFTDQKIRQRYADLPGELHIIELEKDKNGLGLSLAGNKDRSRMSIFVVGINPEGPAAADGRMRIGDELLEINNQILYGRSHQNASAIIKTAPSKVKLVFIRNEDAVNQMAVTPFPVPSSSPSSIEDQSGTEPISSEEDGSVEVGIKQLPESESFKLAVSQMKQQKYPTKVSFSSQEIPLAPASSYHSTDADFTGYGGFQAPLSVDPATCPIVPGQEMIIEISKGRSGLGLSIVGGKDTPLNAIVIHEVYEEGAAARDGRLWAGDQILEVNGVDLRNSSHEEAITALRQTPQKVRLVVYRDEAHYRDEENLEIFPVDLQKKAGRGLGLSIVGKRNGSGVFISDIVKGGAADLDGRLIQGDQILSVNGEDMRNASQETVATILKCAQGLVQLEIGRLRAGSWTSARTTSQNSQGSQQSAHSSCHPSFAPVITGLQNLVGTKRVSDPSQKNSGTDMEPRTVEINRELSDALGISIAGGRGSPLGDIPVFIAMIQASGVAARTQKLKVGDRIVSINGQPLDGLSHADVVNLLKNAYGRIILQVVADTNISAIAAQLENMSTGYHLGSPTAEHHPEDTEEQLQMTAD
T8 sequence (P78352 65-151): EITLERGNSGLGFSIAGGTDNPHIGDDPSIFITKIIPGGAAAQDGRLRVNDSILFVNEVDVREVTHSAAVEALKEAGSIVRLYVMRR
T6 sequence (Q15599 11-90 limits assumed): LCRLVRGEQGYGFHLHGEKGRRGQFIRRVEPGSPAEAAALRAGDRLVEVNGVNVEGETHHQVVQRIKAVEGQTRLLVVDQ
T1 sequence (Q96QZ7 472-554 limits assumed): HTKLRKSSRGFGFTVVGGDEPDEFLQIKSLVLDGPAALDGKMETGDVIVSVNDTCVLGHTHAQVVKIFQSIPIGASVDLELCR

Row | Structure (SMILES) | BI [1] | BI [3] | BI [4] | BI ([5]; DLG1-1) | BI [7] | BI [8] | BI [9] | BI [10] | BI [11] | BI [12] | Kd [13] | BI [14] | BI [15] | Kd [16] | BI ([16]; MAST2-1) | BI [17] | BI [18] | BI [19] | BI [20] | BI [21] | further results
1 | CC[C@H](C)[C@H](NC(=O)[C@H](CCC(N)=O)NC(=O)[C@@H](NC(=O)[C@H](Cc1c[nH]cn1)NC(=O)[C@H](CCC(N)=O)NC(=O)[C@H](CC(=O)O)NC(=O)[C@H](CCC(=O)O)NC(=O)[C@H](CC(=O)O)NC(=O)CCC(=O)NCCCOCCOCCOCCCNC(=O)CCCC[C@@H]1SC[C@@H]2NC(=O)N[C@@H]21)[C@@H](C)O)C(=O)N[C@H](C(=O)N[C@@H](CCCCN)C(=O)N[C@H](C(=O)O)C(C)C)[C@@H](C)O [PTEN_11] | 0.136 | 0.001 | 0.022 | 0.109 | -0.016 | 0.062 | 0.176 | -0.044 | -0.046 | -0.001 | 38.5 µM | 0.184 | -0.078 | 12.7 µM | 0.711 | 0.099 | 0.108 | -0.04 | 0.103 | -0.012 | BI [2]: 0.077; LogKD [3]: 3.519; LogKD [4]: 3.519; BI [6]: -0.049; LogKD [6]: 3.519; LogKD [7]: 3.519; LogKD [8]: 3.519; LogKD [10]: 3.519; LogKD [11]: 3.519; BI [13]: 0.455; LogKD [15]: 3.519; BI (binding intensity) ([16]; MAST2-1, holdup, singlicate, 0.00 no binding to 1.00 strong binding): 0.71; LogKD [19]: 3.519; LogKD [21]: 3.519; Kd [22]: 48 µM; BI ([22]; GORASP2-1): 0.403; BI [23]: -0.067; LogKD [23]: 3.519
2 | CC[C@H](C)[C@H](NC(=O)[C@H](CCC(N)=O)NC(=O)[C@@H](NC(=O)[C@H](Cc1c[nH]cn1)NC(=O)[C@H](CCC(N)=O)NC(=O)[C@H](CC(=O)O)NC(=O)[C@H](CCC(=O)O)NC(=O)[C@H](CC(=O)O)NC(=O)[C@H](Cc1ccccc1)NC(=O)[C@@H]1CCCN1C(=O)CCC(=O)NCCCOCCOCCOCCCNC(=O)CCCC[C@@H]1SC[C@@H]2NC(=O)N[C@@H]21)[C@@H](C)O)C(=O)N[C@H](C(=O)N[C@@H](CCCCN)C(=O)N[C@H](C(=O)O)C(C)C)[C@@H](C)O [PTEN_13] ({X1-Suc}-PFDEDQHTQITKV-OH) | 0.07 | -0.027 | 0.086 | 0.011 | -0.006 | 0.011 | 0.236 | -0.039 | -0.027 | 0.009 | 7.64 µM | 0.482 | -0.096 | 1.28 µM | 0.88 | 0.11 | 0.145 | -0.114 | 0.077 | 0.044 | LogKD [1]: 3.826; BI [2]: -0.017; LogKD ([5]; DLG1-1): 3.826; BI [6]: -0.07; Kd [9]: 52 µM; Kd [14]: 16.2 µM; BI ([22]; GORASP2-1): 0.092; LogKD ([22]; GORASP2-1): 3.826; BI [23]: -0.039
3 | CC[C@H](C)[C@H](NC(=O)[C@H](CCC(N)=O)NC(=O)[C@@H](NC(=O)[C@H](Cc1c[nH]cn1)NC(=O)[C@H](CCC(N)=O)NC(=O)[C@H](CC(=O)O)NC(=O)[C@H](CCC(=O)O)NC(=O)[C@H](CC(=O)O)NC(=O)CCC(=O)NCCCOCCOCCOCCCNC(=O)CCCC[C@@H]1SC[C@@H]2NC(=O)N[C@@H]21)[C@@H](C)O)C(=O)N[C@H](C(=O)N[C@@H](CCCNC(=N)N)C(=O)N[C@H](C(=O)O)C(C)C)[C@@H](C)O [PTEN_KR] ({X1-Suc}-DEDQHTQITRV-OH) | 0.176 | -0.057 | 0.058 | 0.215 | -0.097 | 0.004 | 0.358 | -0.046 | -0.067 | -0.006 | 32.2 µM | 0.138 | -0.082 | 6.66 µM | 0.767 | 0.169 | 0.118 | -0.074 | 0.229 | -0.033 | LogKD [3]: 3.655; LogKD [4]: 3.655; Kd [5]: 88.1 µM; LogKD [6]: 3.655; LogKD [7]: 3.655; LogKD [8]: 3.655; Kd [9]: 42.3 µM; LogKD [10]: 3.655; LogKD [11]: 3.655; BI [13]: 0.42; LogKD [15]: 3.655; LogKD [19]: 3.655; Kd [20]: 81.1 µM; LogKD [21]: 3.655; Kd [22]: 16 µM; BI ([22]; GORASP2-1): 0.586; BI [23]: -0.066; LogKD [23]: 3.655
